US20240150298A1, “ANTIBACTERIAL COMPOUNDS” (Blacksmith Medicines, Inc., priority 2021, published 2024)
≈ marks a conversion by molar mass, not a printed value. Like-named read-outs stand apart in the source and are kept apart here. Each block holds one compound with its values, some of them ahead of it.

Columns and labels:
Experiment in all cases: Bacterial susceptibility testing, MIC by broth microdilution (CLSI)
Format in all cases: cell-based
[1] = test system: P. aeruginosa 209 PAO1; settings: Pseudomonas aeruginosa
Description: (§1) Minimal inhibitory concentrations (MIC) were determined by the broth microdilution method in accordance with the Clinical and Laboratory Standards Institute (CLSI) guidelines. In brief, organism suspensions were adjusted to a final inoculum between 3×10^5 and 7×10^5 colony-forming units (CFU)/mL. Drug dilutions and inocula were made in sterile, cation adjusted Mueller-Hinton Broth (Beckton Dickinson). In wells, an inoculum volume of 100 μL was mixed to 2 μL of DMSO with 2-fold serial dilutions of drug. All inoculated microdilution trays were incubated in ambient air at 35° C. for 18-24 h. Following incubation, the lowest concentration of the drug that prevented visible growth (OD600 nm<0.05) was recorded as the MIC. Performance of the assay was monitored by the use of laboratory quality-control strains and compounds with defined MIC spectrum, in accordance with CLSI guidelines.

[2] = test system: E. coli ATCC25922; settings: Escherichia coli
Description: as §1

[3] = test system: P. aeruginosa ATCC27835; settings: Pseudomonas aeruginosa
Description: as §1

[4] = test system: K. pneumoniae ATCC13883; settings: Klebsiella pneumoniae
Description: as §1

[5] = PAO1, broth microdilution, 35° C., 18-24 h, read-out: MIC P. aeruginosa 209 PAO1
[6] = ATCC25922, broth microdilution, 35° C., 18-24 h, read-out: MIC E. coli ATCC25922
[7] = ATCC27835, broth microdilution, 35° C., 18-24 h, read-out: MIC P. aeruginosa ATCC27835
[8] = ATCC13883, broth microdilution, 35° C., 18-24 h, read-out: MIC K. pneumoniae ATCC13883

Structure (SMILES): C[C@H](O)c1nccn1[C@@H](/C=C/c1ccc(-c2ccc(C3CC(C(=O)NCc4c[nH]cn4)C3)cc2)cc1)CO (stereo partly drawn) [Compound 55, N-((1H-imidazol-4-yl)methyl)-3-(4′-((S,E)-4-hydroxy-3-(2-((S)-1-hydroxyethyl)-1H-imidazol-1-yl)but-1-en-1-yl)-[1,1′-biphenyl]-4-yl)cyclobutane-1-carboxamide]
MIC [1, 5]: 2 µg/mL (≈ 3.91 µM)
MIC [2, 6]: 0.5 µg/mL (≈ 0.977 µM)
MIC [3, 7]: 2 µg/mL (≈ 3.91 µM)
MIC [4, 8]: 2 µg/mL (≈ 3.91 µM)

Structure (SMILES): C[C@H](O)c1nccn1[C@@H](/C=C/c1ccc(-c2ccc(C3CC(NCc4ncon4)C3)cc2)cc1)CO (stereo partly drawn) [Compound 42, (S,E)-4-(4′-(3-(((1,2,4-oxadiazol-3-yl)methyl)amino)cyclobutyl)-[1,1′-biphenyl]-4-yl)-2-(2-((S)-1-hydroxyethyl)-1H-imidazol-1-yl)but-3-en-1-ol]
MIC [1, 5]: 4 µg/mL (≈ 8.24 µM)
MIC [3, 7]: 4 µg/mL (≈ 8.24 µM)
MIC [4, 8]: 0.5 µg/mL (≈ 1.03 µM)

Structure (SMILES): C[C@H](O)c1nccn1[C@@H](/C=C/c1ccc(-c2ccc(C3CC(NCC(F)(F)CO)C3)cc2)cc1)CO (stereo partly drawn) [Compound 45, (S,E)-4-(4′-(3-((2,2-difluoro-3-hydroxypropyl)amino)cyclobutyl)-[1,1′-biphenyl]-4-yl)-2-(2-((S)-1-hydroxyethyl)-1H-imidazol-1-yl)but-3-en-1-ol]
MIC [1, 5]: 4 µg/mL (≈ 8.04 µM)
MIC [2, 6]: 0.25 µg/mL (≈ 0.502 µM)
MIC [3, 7]: 4 µg/mL (≈ 8.04 µM)
MIC [4, 8]: 0.5 µg/mL (≈ 1 µM)

Structure (SMILES): C[C@H](O)c1nccn1[C@@H](/C=C/c1ccc(-c2ccc(C3CC(NC[C@@H]4CNC(=O)O4)C3)cc2)cc1)CO (stereo partly drawn) [Compound 46, (R)-5-(((3-(4′-((S,E)-4-hydroxy-3-(2-((S)-1-hydroxyethyl)-1H-imidazol-1-yl)but-1-en-1-yl)-[1,1′-biphenyl]-4-yl)cyclobutyl)amino)methyl) oxazolidin-2-one]
MIC [1, 5]: 4 µg/mL (≈ 7.96 µM)
MIC [2, 6]: 0.5 µg/mL (≈ 0.995 µM)
MIC [3, 7]: 4 µg/mL (≈ 7.96 µM)
MIC [4, 8]: 2 µg/mL (≈ 3.98 µM)

Structure (SMILES): C[C@H](O)c1nccn1[C@@H](/C=C/c1ccc(-c2ccc(C3CC(C(=O)NCc4cocn4)C3)cc2)cc1)CO (stereo partly drawn) [Compound 54, 3-(4′-((S,E)-4-hydroxy-3-(2-((S)-1-hydroxyethyl)-1H-imidazol-1-yl)but-1-en-1-yl)-[1,1′-biphenyl]-4-yl)-N-(oxazol-4-ylmethyl)cyclobutane-1-carboxamide]
MIC [1, 5]: 2 µg/mL (≈ 3.9 µM)
MIC [2, 6]: 0.5 µg/mL (≈ 0.975 µM)
MIC [3, 7]: 4 µg/mL (≈ 7.8 µM)
MIC [4, 8]: 1 µg/mL (≈ 1.95 µM)

Structure (SMILES): C[C@H](O)c1nccn1[C@@H](/C=C/c1ccc(-c2ccc(C3CC(C(=O)NCc4ncon4)C3)cc2)cc1)CO (stereo partly drawn) [Compound 53, N-((1,2,4-oxadiazol-3-yl)methyl)-3-(4′-((S,E)-4-hydroxy-3-(2-((S)-1-hydroxyethyl)-1H-imidazol-1-yl)but-1-en-1-yl)-[1,1′-biphenyl]-4-yl)cyclobutane-1-carboxamide]
MIC [1, 5]: 2 µg/mL (≈ 3.89 µM)
MIC [2, 6]: 0.5 µg/mL (≈ 0.974 µM)
MIC [3, 7]: 4 µg/mL (≈ 7.79 µM)
MIC [4, 8]: 1 µg/mL (≈ 1.95 µM)

Structure (SMILES): C[C@H](O)c1nccn1[C@@H](/C=C/c1ccc(-c2ccc(C3CC(C(=O)NCCO)C3)cc2)cc1)CO (stereo partly drawn) [Compound 49, 3-(4′-((S,E)-4-hydroxy-3-(2-((S)-1-hydroxyethyl)-1H-imidazol-1-yl)but-1-en-1-yl)-[1,1′-biphenyl]-4-yl)-N-(2-hydroxyethyl)cyclobutane-1-carboxamide]
MIC [1, 5]: 2 µg/mL (≈ 4.21 µM)
MIC [2, 6]: 4 µg/mL (≈ 8.41 µM)
MIC [3, 7]: 2 µg/mL (≈ 4.21 µM)
MIC [4, 8]: 4 µg/mL (≈ 8.41 µM)

Structure (SMILES): C[C@H](O)c1nccn1[C@@H](/C=C/c1ccc(-c2ccc(C3CC(N)C3)cc2)cc1)CO (stereo partly drawn) [Compound 48, (S,E)-4-(4′-(3-aminocyclobutyl)-[1,1′-biphenyl]-4-yl)-2-(2-((S)-1-hydroxyethyl)-1H-imidazol-1-yl)but-3-en-1-ol]
MIC [1, 5]: 2 µg/mL (≈ 4.96 µM)
MIC [2, 6]: 2 µg/mL (≈ 4.96 µM)
MIC [3, 7]: 2 µg/mL (≈ 4.96 µM)
MIC [4, 8]: 16 µg/mL (≈ 39.7 µM)

Structure (SMILES): C[C@H](O)c1nccn1[C@@H](/C=C/c1ccc(-c2ccc([C@H]3C[C@H](NC(=O)CC#N)C3)cc2)cc1)CO [Compound 65, 2-cyano-N-((1S,3r)-3-(4′-((S,E)-4-hydroxy-3-(2-((S)-1-hydroxyethyl)-1H-imidazol-1-yl)but-1-en-1-yl)-[1,1′-biphenyl]-4-yl)cyclobutyl)acetamide]
MIC ([1]; PAO1, read-out: MIC P. aeruginosa 209 PAO1): 2 µg/mL (≈ 4.25 µM)
MIC ([2]; ATCC25922, read-out: MIC E. coli ATCC25922): 0.5 µg/mL (≈ 1.06 µM)
MIC ([3]; ATCC27835, read-out: MIC P. aeruginosa ATCC27835): 2 µg/mL (≈ 4.25 µM)
MIC ([4]; ATCC13883, read-out: MIC K. pneumoniae ATCC13883): 1 µg/mL (≈ 2.13 µM)

Structure (SMILES): COC(=O)C1CC(c2ccc(-c3ccc(/C=C/[C@@H](CO)n4ccnc4[C@H](C)O)cc3)cc2)C1 (stereo partly drawn) [Compound 67, methyl 3-(4′-((S,E)-4-hydroxy-3-(2-((S)-1-hydroxyethyl)-1H-imidazol-1-yl)but-1-en-1-yl)-[1,1′-biphenyl]-4-yl)cyclobutane-1-carboxylate]
MIC [1, 5]: 2 µg/mL (≈ 4.48 µM)
MIC [2, 6]: 0.5 µg/mL (≈ 1.12 µM)
MIC [3, 7]: 2 µg/mL (≈ 4.48 µM)
MIC [4, 8]: 1 µg/mL (≈ 2.24 µM)

Structure (SMILES): C[C@H](O)c1nccn1[C@@H](/C=C/c1ccc(-c2ccc(C3CC(NC(C#N)CO)C3)cc2)cc1)CO (stereo partly drawn) [Compound 41, 3-hydroxy-2-((3-(4′-((S,E)-4-hydroxy-3-(2-((S)-1-hydroxyethyl)-1H-imidazol-1-yl)but-1-en-1-yl)-[1,1′-biphenyl]-4-yl)cyclobutyl)amino)propanenitrile]
MIC [1, 5]: 2 µg/mL (≈ 4.23 µM)
MIC [3, 7]: 2 µg/mL (≈ 4.23 µM)
MIC [4, 8]: 2 µg/mL (≈ 4.23 µM)

Structure (SMILES): C[C@H](O)c1nccn1[C@@H](/C=C/c1ccc(-c2ccc(C3CC(NCc4cocn4)C3)cc2)cc1)CO (stereo partly drawn) [Compound 40, (S,E)-2-(2-((S)-1-hydroxyethyl)-1H-imidazol-1-yl)-4-(4′-(3-((oxazol-4-ylmethyl)amino)cyclobutyl)-[1,1′-biphenyl]-4-yl)but-3-en-1-ol]
MIC [1, 5]: 2 µg/mL (≈ 4.13 µM)
MIC [3, 7]: 2 µg/mL (≈ 4.13 µM)
MIC [4, 8]: 1 µg/mL (≈ 2.06 µM)

Other lines, results leading:

MIC [1, 5]: 1 µg/mL (≈ 2.36 µM)
MIC [2, 6]: 8 µg/mL (≈ 18.9 µM)
MIC [3, 7]: 2 µg/mL (≈ 4.72 µM)
MIC [4, 8]: 16 µg/mL (≈ 37.8 µM)
Structure (SMILES): C[C@H](O)c1nccn1[C@@H](/C=C/c1ccc(-c2ccc(OC[C@@H](N)CO)cc2)cc1)CO (single isomer, unassigned) [Compound 10]

MIC [1, 5]: 2 µg/mL (≈ 4.31 µM)
MIC [2, 6]: 2 µg/mL (≈ 4.31 µM)
MIC [3, 7]: 2 µg/mL (≈ 4.31 µM)
MIC [4, 8]: 8 µg/mL (≈ 17.3 µM)
Structure (SMILES): C[C@H](O)c1nccn1[C@@H](/C=C/c1ccc(-c2ccc(C3C[C@H]3OCC(N)CO)cc2)cc1)CO (stereo partly drawn) [Compound 72, (2S,E)-4-(4′-((1S,2R)-2-(2-amino-3-hydroxypropoxy)cyclopropyl)-[1,1′-biphenyl]-4-yl)-2-(2-((S)-1-hydroxyethyl)-1H-imidazol-1-yl)but-3-en-1-ol]

MIC [1, 5]: 2 µg/mL (≈ 4.41 µM)
MIC [2, 6]: 8 µg/mL (≈ 17.6 µM)
MIC [3, 7]: 1 µg/mL (≈ 2.2 µM)
MIC [4, 8]: > 32 µg/mL
Structure (SMILES): C[C@H](O)c1nccn1[C@@H](/C=C/c1ccc(-c2ccc(OCC(N)(CO)CO)cc2)cc1)CO [Compound 74, 2-amino-2-(((4′-((S,E)-4-hydroxy-3-(2-((S)-1-hydroxyethyl)-1H-imidazol-1-yl)but-1-en-1-yl)-[1,1′-biphenyl]-4-yl)oxy)methyl)propane-1,3-diol]

MIC [1, 5]: 2 µg/mL (≈ 4.56 µM)
MIC [3, 7]: 2 µg/mL (≈ 4.56 µM)
MIC [4, 8]: 2 µg/mL (≈ 4.56 µM)
Structure (SMILES): C[C@H](O)c1nccn1[C@@H](/C=C/c1ccc(-c2ccc(OCCC(O)CO)cc2)cc1)CO (mixture of isomers) [Compound 43, 4-((4′-((S,E)-4-hydroxy-3-(2-((S)-1-hydroxyethyl)-1H-imidazol-1-yl)but-1-en-1-yl)-[1,1′-biphenyl]-4-yl)oxy)butane-1,2-diol]

MIC [1, 5]: 4 µg/mL (≈ 9.42 µM)
MIC [2, 6]: 8 µg/mL (≈ 18.8 µM)
MIC [3, 7]: 4 µg/mL (≈ 9.42 µM)
MIC [4, 8]: 16 µg/mL (≈ 37.7 µM)
Structure (SMILES): C[C@H](O)c1nccn1[C@@H](/C=C/c1ccc(-c2ccc(OC[C@H](O)CO)cc2)cc1)CO [Compound 23, (R)-3-((4′-((S,E)-4-hydroxy-3-(2-((S)-1-hydroxyethyl)-1H-imidazol-1-yl)but-1-en-1-yl)-[1,1′-biphenyl]-4-yl)oxy)propane-1,2-diol]

MIC [1, 5]: 1 µg/mL (≈ 2.29 µM)
MIC [2, 6]: 2 µg/mL (≈ 4.57 µM)
MIC [3, 7]: 4 µg/mL (≈ 9.14 µM)
MIC [4, 8]: 4 µg/mL (≈ 9.14 µM)
Structure (SMILES): COC[C@H](N)COc1ccc(-c2ccc(/C=C/[C@@H](CO)n3ccnc3[C@H](C)O)cc2)cc1 [Compound 31, (2S,E)-4-(4′-(2-amino-3-methoxypropoxy)-[1,1′-biphenyl]-4-yl)-2-(2-((S)-1-hydroxyethyl)-1H-imidazol-1-yl)but-3-en-1-ol]

MIC [1, 5]: 8 µg/mL (≈ 17.7 µM)
MIC [2, 6]: 16 µg/mL (≈ 35.4 µM)
MIC [3, 7]: 4 µg/mL (≈ 8.86 µM)
MIC [4, 8]: 64 µg/mL (≈ 142 µM)
Structure (SMILES): C[C@H](O)c1nccn1[C@@H](/C=C/c1ccc(-c2ccc(OCC(O)CN(C)C)cc2)cc1)CO (mixture of isomers) [Compound 21, (2S,E)-4-(4′-(3-(dimethylamino)-2-hydroxypropoxy)-[1,1′-biphenyl]-4-yl)-2-(2-((S)-1-hydroxyethyl)-1H-imidazol-1-yl)but-3-en-1-ol]

MIC [1, 5]: 0.5 µg/mL (≈ 1.23 µM)
MIC [2, 6]: 0.5 µg/mL (≈ 1.23 µM)
MIC [3, 7]: 2 µg/mL (≈ 4.93 µM)
Structure (SMILES): C[C@H](O)c1nccn1[C@@H](/C=C/c1ccc(-c2ccc(O[C@@H]3C[C@H]3N)cc2)cc1)CO (single isomer, unassigned) [Compound 15]

MIC [1, 5]: 2 µg/mL (≈ 4.45 µM)
MIC [2, 6]: 4 µg/mL (≈ 8.9 µM)
MIC [3, 7]: 2 µg/mL (≈ 4.45 µM)
Structure (SMILES): C[C@H](O)c1nccn1[C@@H](/C=C/c1ccc(-c2ccc(OC3CN(CCO)C3)cc2)cc1)CO [Compound 20, (S,E)-2-(2-((S)-1-hydroxyethyl)-1H-imidazol-1-yl)-4-(4′-((1-(2-hydroxyethyl)azetidin-3-yl)oxy)-[1,1′-biphenyl]-4-yl)but-3-en-1-ol]

MIC [1, 5]: 2 µg/mL (≈ 4.72 µM)
MIC [3, 7]: 2 µg/mL (≈ 4.72 µM)
Structure (SMILES): C[C@H](O)c1nccn1[C@@H](/C=C/c1ccc(-c2ccc(OC[C@H](N)CO)cc2)cc1)CO (single isomer, unassigned) [Compound 9]
